Experiment [1] has as its target T1, EGFR L858R/T790M/C797S (BaF3-LTC cells) (Homo sapiens, UniProt P00533, C797S/L858R/T790M).
T1 construct: expressed in transfected cells; host or cells: BaF3
The experiment in a line: EGFR degradation HTRF assay, BaF3-LTC cells. In kind it is cell-based. The method, then: (§1) BaF3 WT(wild type), BaF3-LTC(L858R/T790M/C797S) and BaF3-DTC(Del19/T790M/C797S) cells are treated with compounds diluted in 0.2% DMSO cell culture medium and incubate for 16h, 37° C., 5% CO2, H1975-#36, H1975-#28, H1975-#23 and HCC827 cells are treated with compounds diluted in 0.2% DMSO cell culture medium on day 2, incubate for 16h, 37° C., 5% CO2.the final concentriation of compounds in all assay is start with 10 uM, 5-fold dilution, total 8 doses were included.
(§2) After 16h treatment, add HTRF lysis buffer to each well; seal the plate and incubate 1 hour at room temperature on a plate shaker; Once the cells are lysed, 16 μL of cell lysate are transferred to a PE 384-well HTRF detection plate; 4 μL of pre-mixed HTRF antibodies are added to each well; Cover the plate with a plate sealer, spin 1000 rpm for 1 min, Incubate overnight at room temperature; Read on BMG PheraStar with HTRF protocol (337 nm-665 nm-620 nm).
(§3) The inhibition (degradation) percentage of the compound was calculated by the following equation: Inhibition percentage of Compound=100-100×(Signal-low control)/(High control-low control), wherein signal=each test compound group
(§4) High control=Cell group with added DMSO and without compound, indicating microplate readings without EGFR degradation;
(§5) Dmax is the maximum percentage of inhibition (degradation).
(§6) The IC50 (DC50) value of a compound can be obtained by fitting the following equation
(§7) Y=Bottom+(TOP−Bottom)/(1+((IC50/X)^hillslope))
(§8) Wherein, X and Y are known values, and IC50, Hillslope, Top and Bottom are the parameters obtained by fitting with software. Y is the inhibition percentage (calculated from the equation), X is the concentration of the compound; IC50 is the concentration of the compound when the 50% inhibition is reached. The smaller the IC50 value is, the stronger the inhibitory ability of the compound is. Vice versa, the higher the IC50 value is, the weaker the inhibitory ability of the compound is; Hillslope represents the slope of the fitted curve, generally around 1*; Bottom represents the minimum value of the curve obtained by data fitting, which is generally 0%±20%; Top represents the maximum value of the curve obtained by data fitting, which is generally 100%±20%. The experimental data were fitted by calculating and analyzing with Dotmatics data analysis software.
On the technique in general: In TR-FRET formats the signal depends on donor and acceptor labels being close together.

In experiment [2] the test system is EGFR Del19/T790M/C797S (H1975-clone #28). Kind of experiment: EGFR degradation HTRF assay, H1975-clone #28 DTC cells. In kind it is cell-based. The protocol: H1975-clone #28(Del19/T790M/C797S) and H1975-clone #23(Del19/C797S). EGFR-Del19/T790M/C797S and EGFR-Del19/C797S were stably expressed in H1975 cell lines by lentivirus-mediated over-expression, respectively. The EGFR over-expressed cells then underwent gene knockout, in which the EGFR targeting sgRNA was designed to only target the endogenous EGFR copies and preserve the exogenous EGFR copies. Followed by the gene knockout, the edited H1975 cells were seeded in 96 well plates at the concentration of 1 cell/well, cultured for about 2 weeks to allow single clones formation. The formed clones were screened by DNA sequencing and whole exon sequencing analysis for the desired edition. H1975-clone #28 and H1975-clone #23 were finally confirmed as homozygous Del19/T790M/C797S EGFR and Del19/C797S EGFR clones, respectively.
as §1, §2, §3, §4, §5, §6, §7, §8

The mark [3] stands for this setting: read-out: DC50(nM) BaF3-LTC; BaF3-LTC cells; EGFR degradation, IC50 (DC50) from curve fit.
Where [4] appears, read: read-out: Dmax (%) BaF3-LTC, BaF3-LTC cells; maximum percentage of inhibition (degradation).
[5] abbreviates: H1975 # 28 DTC cells; maximum percentage of inhibition (degradation).
Where [6] appears, read: read-out: DC50(nM) H1975 # 28 DTC; H1975 # 28 DTC cells; EGFR degradation, IC50 (DC50) from curve fit.
[7] abbreviates: BaF3-LTC cells; EGFR degradation, IC50 (DC50) from curve fit; read-out: DC50(nM) BaF3-LTC.
The mark [8] stands for this setting: BaF3-LTC cells; maximum percentage of inhibition (degradation); read-out: Dmax (%) BaF3-LTC.
Where [9] appears, read: H1975 # 28 DTC cells; EGFR degradation, IC50 (DC50) from curve fit; read-out: DC50(nM) H1975 # 28 DTC.

Read-outs that look alike come from different tables or passages of the source.

Consider 10 compounds from patent US20230265116A1, “DEGRADATION OF (EGFR) BY CONJUGATION OF EGFR INHIBITORS WITH E3 LIGASE LIGAND AND METHODS OF USE” (BEIGENE, LTD., priority 2020, published 2023).

T1 sequence (P00533 25-1210 T790M/C797S/L858R): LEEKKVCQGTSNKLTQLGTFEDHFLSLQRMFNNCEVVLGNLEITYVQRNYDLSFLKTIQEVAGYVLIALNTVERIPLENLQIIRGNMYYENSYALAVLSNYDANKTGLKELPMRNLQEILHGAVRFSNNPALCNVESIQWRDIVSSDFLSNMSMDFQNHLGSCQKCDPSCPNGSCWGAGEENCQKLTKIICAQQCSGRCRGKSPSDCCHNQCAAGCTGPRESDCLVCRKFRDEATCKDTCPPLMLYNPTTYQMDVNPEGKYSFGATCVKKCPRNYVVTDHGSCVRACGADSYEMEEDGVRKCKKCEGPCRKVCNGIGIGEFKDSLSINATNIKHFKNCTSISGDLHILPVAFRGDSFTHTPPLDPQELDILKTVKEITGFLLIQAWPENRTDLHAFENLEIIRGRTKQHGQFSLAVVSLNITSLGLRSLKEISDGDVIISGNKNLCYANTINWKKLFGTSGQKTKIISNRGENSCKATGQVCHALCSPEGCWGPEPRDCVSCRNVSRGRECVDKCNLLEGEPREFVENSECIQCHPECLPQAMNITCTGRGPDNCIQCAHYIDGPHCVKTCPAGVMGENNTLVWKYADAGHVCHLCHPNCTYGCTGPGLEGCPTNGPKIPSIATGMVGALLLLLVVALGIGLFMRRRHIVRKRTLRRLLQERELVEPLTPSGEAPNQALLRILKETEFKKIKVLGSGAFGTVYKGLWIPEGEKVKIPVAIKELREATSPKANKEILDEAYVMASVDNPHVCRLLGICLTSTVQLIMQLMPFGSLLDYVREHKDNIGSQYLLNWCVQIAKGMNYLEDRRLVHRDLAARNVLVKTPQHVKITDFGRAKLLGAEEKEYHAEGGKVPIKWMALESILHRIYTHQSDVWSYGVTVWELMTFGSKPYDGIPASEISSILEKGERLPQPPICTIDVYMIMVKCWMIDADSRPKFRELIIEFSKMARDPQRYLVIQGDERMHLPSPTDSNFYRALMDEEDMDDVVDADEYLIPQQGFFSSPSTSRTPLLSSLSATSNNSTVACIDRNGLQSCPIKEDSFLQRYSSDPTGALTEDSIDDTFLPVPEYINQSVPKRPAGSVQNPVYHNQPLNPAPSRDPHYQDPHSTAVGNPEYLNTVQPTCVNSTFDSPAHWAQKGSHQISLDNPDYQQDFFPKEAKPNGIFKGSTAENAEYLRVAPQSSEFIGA

In the case of `CCOc1cc(N2CCC(N3CCN(CCCc4cc(F)cc5c4oc(=O)n5C4CCC(=O)NC4=O)CC3)CC2)c(CC)cc1Nc1ncc(Br)c(Nc2ccc3nc(CC)ncc3c2P(C)(C)=O)n1` (stereo not drawn) [Example 564, 3-(7-(3-(4-(1-(4-((5-bromo-4-((5-(dimethylphosphoryl)-2-ethylquinazolin-6-yl)amino)pyrimidin-2-yl)amino)-5-ethoxy-2-ethylphenyl)piperidin-4-yl)piperazin-1-yl)propyl)-5-fluoro-2-oxobenzo[d]oxazol-3(2H)-yl)piperidine-2,6-dione], the DC50 (usually the concentration giving 50% degradation) in experiment [1] (setting [3]) was 7.34 nM; in experiment [2] (setting [6]), 1.04 nM. Also, the Dmax (in general, the largest share of the target that was removed) in experiment [1] (setting [4]) worked out at 93.9%. For the same compound, the “Dmax (%) H1975 # 28 DTC” value in experiment [2] (setting [5]) is 81.87%.

Consider `CCc1ccc2c(P(C)(C)=O)c(Nc3nc(Nc4cc(C)c(N5CCC(N6CCN(C(=O)[C@@H]7CCN(c8cc(F)c([C@H]9CCC(=O)NC9=O)c(F)c8)C7)CC6)CC5)cc4OC)ncc3Br)ccc2n1` [Example 539, (R)-3-(4-((R)-3-(4-(1-(4-((5-bromo-4-((5-(dimethylphosphoryl)-2-ethylquinolin-6-yl)amino)pyrimidin-2-yl)amino)-5-methoxy-2-methylphenyl)piperidin-4-yl)piperazine-1-carbonyl)pyrrolidin-1-yl)-2,6-difluorophenyl)piperidine-2,6-dione], for which the 50% degradation concentration (DC50) in experiment [1] (setting [7]) came to 6.44 nM; in experiment [2] (setting [9]), 1.09 nM. Besides, the Dmax in experiment [1] (setting [8]) turned out to be 94.1%. In addition, the “Dmax (%) H1975 # 28 DTC” value in experiment [2] (setting [5]) is 84.42%.

Take `CCc1ccc2c(P(C)(C)=O)c(Nc3nc(Nc4cc(CC)c(N5CCC(N6CCN(CCc7c(F)ccc8c7n(C)c(=O)n8C7CCC(=O)NC7=O)CC6)CC5)cc4OC)ncc3Br)ccc2n1` (stereo not drawn) [Example 452, 3-(4-(2-(4-(1-(4-((5-bromo-4-((5-(dimethylphosphoryl)-2-ethylquinolin-6-yl)amino)pyrimidin-2-yl)amino)-2-ethyl-5-methoxyphenyl)piperidin-4-yl)piperazin-1-yl)ethyl)-5-fluoro-3-methyl-2-oxo-2,3-dihydro-1H-benzo[d]imidazol-1-yl)piperidine-2,6-dione]: the 50% degradation concentration (DC50) in experiment [1] (setting [7]) is 3.96 nM; in experiment [2] (setting [9]), 0.863 nM. Besides, the greatest degradation seen (Dmax) in experiment [1] (setting [8]) was determined as 89.7%. Also, the “Dmax (%) H1975 # 28 DTC” value in experiment [2] (setting [5]) is reported as 78.26%.

Consider `CCOc1cc(N2CCC(N3CCN(CCc4c(F)cc5c(oc(=O)n5C5CCC(=O)NC5=O)c4C)CC3)CC2)c(CC)cc1Nc1ncc(Br)c(Nc2ccc3c(=O)n(CC)ncc3c2P(C)(C)=O)n1` (stereo not drawn) [Example 613, 3-(6-(2-(4-(1-(4-((5-bromo-4-((5-(dimethylphosphoryl)-2-ethyl-1-oxo-1,2-dihydrophthalazin-6-yl)amino)pyrimidin-2-yl)amino)-5-ethoxy-2-ethylphenyl)piperidin-4-yl)piperazin-1-yl)ethyl)-5-fluoro-7-methyl-2-oxobenzo[d]oxazol-3(2H)-yl)piperidine-2,6-dione], for which the figures for the 50% degradation concentration (DC50) in experiment [1] (setting [7]) and in experiment [2] (setting [9]) were 17.3 nM and 3.55 nM, respectively. Besides, in experiment [1] (setting [8]), the maximal degradation (Dmax) is 88.6%. In addition, the “Dmax (%) H1975 # 28 DTC” value in experiment [2] (setting [5]) came to 71.47%.

As to `CCOc1cc(N2CCC(N3CCN(CCc4cc(F)c([C@H]5CCC(=O)NC5=O)c(F)c4)CC3)CC2)c(CC)cc1Nc1nccc(Nc2ccc3nc(CC)ncc3c2P(C)(C)=O)n1` [Example 749, (R)-3-(4-(2-(4-(1-(4-((4-((5-(dimethylphosphoryl)-2-ethylquinazolin-6-yl)amino)pyrimidin-2-yl)amino)-5-ethoxy-2-ethylphenyl)piperidin-4-yl)piperazin-1-yl)ethyl)-2,6-difluorophenyl)piperidine-2,6-dione], the DC50 in experiment [1] (setting [7]) amounted to 294 nM; in experiment [2] (setting [9]), 14.8 nM. For the same compound, the “Dmax (%) H1975 # 28 DTC” value in experiment [2] (setting [5]) was determined as 66.03%.

Turning to `CCOc1cc(N2CCC(N3CCN(CCC4CCN(c5ccc6c(oc(=O)n6C6CCC(=O)NC6=O)c5F)CC4)CC3)CC2)c(CC)cc1Nc1ncc(Br)c(Nc2ccc3nc(CC)ncc3c2P(C)(C)=O)n1` (stereo not drawn) [Example 612, 3-(6-(4-(2-(4-(1-(4-((5-bromo-4-((5-(dimethylphosphoryl)-2-ethylquinazolin-6-yl)amino)pyrimidin-2-yl)amino)-5-ethoxy-2-ethylphenyl)piperidin-4-yl)piperazin-1-yl)ethyl)piperidin-1-yl)-7-fluoro-2-oxobenzo[d]oxazol-3(2H)-yl)piperidine-2,6-dione], the half-maximal degradation concentration (DC50) in experiment [1] (setting [3]) was determined as 7.68 nM; in experiment [2] (setting [6]), 0.656 nM. The maximal degradation (Dmax) in experiment [1] (setting [4]) was 93.2%. Moreover, in experiment [2] (setting [5]), the “Dmax (%) H1975 # 28 DTC” value is reported as 72.14%.

In the case of `CCOc1cc(N2CCC(N3CCN(CCc4cc(OC)cc5c4oc(=O)n5C4CCC(=O)NC4=O)CC3)CC2)c(CC)cc1Nc1ncc(Br)c(Nc2ccc3nc(CC)ccc3c2P(C)(C)=O)n1` (stereo not drawn) [Example 618, 3-(7-(2-(4-(1-(4-((5-bromo-4-((5-(dimethylphosphoryl)-2-ethylquinolin-6-yl)amino)pyrimidin-2-yl)amino)-5-ethoxy-2-ethylphenyl)piperidin-4-yl)piperazin-1-yl)ethyl)-5-methoxy-2-oxobenzo[d]oxazol-3(2H)-yl)piperidine-2,6-dione], the half-maximal degradation concentration (DC50) in experiment [1] (setting [7]) is 53.2 nM; in experiment [2] (setting [9]), 2.14 nM. In experiment [1] (setting [8]), the Dmax was determined as 74.2%. Further, in experiment [2] (setting [5]), the “Dmax (%) H1975 # 28 DTC” value is 74.88%.

For the compound `CCc1cc(Nc2ncc(Br)c(Nc3ccc4nc(C)ccc4c3P(C)(C)=O)n2)c(OC2CC2)cc1N1CCC(N2CCN(CCc3cc4oc(=O)n(C5CCC(=O)NC5=O)c4cc3F)CC2)CC1` (stereo not drawn) [Example 601, 3-(6-(2-(4-(1-(4-((5-bromo-4-((5-(dimethylphosphoryl)-2-methylquinolin-6-yl)amino)pyrimidin-2-yl)amino)-5-cyclopropoxy-2-ethylphenyl)piperidin-4-yl)piperazin-1-yl)ethyl)-5-fluoro-2-oxobenzo[d]oxazol-3(2H)-yl)piperidine-2,6-dione], the values for the half-maximal degradation concentration (DC50) in experiment [1] (setting [7]) and in experiment [2] (setting [9]) were 8.64 nM and 0.632 nM, respectively. Moreover, the greatest degradation seen (Dmax) in experiment [1] (setting [8]) is 89.5%. In experiment [2] (setting [5]), the “Dmax (%) H1975 # 28 DTC” value is 77.35%.

As for `CCc1ncc2c(P(C)(C)=O)c(Nc3nc(Nc4cc(CC)c(N5CCC(N6CCN(C(=O)Cc7ccc8c(c7)oc(=O)n8C7CCC(=O)NC7=O)CC6)CC5)cc4OC)ncc3Br)ccc2n1` (stereo not drawn) [Example 646, 3-(6-(2-(4-(1-(4-((5-bromo-4-((5-(dimethylphosphoryl)-2-ethylquinazolin-6-yl)amino)pyrimidin-2-yl)amino)-2-ethyl-5-methoxyphenyl)piperidin-4-yl)piperazin-1-yl)-2-oxoethyl)-2-oxobenzo[d]oxazol-3(2H)-yl)piperidine-2,6-dione], the values for the DC50 in experiment [1] (setting [3]) and in experiment [2] (setting [6]) were 6.2 nM and 0.627 nM, respectively. Besides, the maximal degradation (Dmax) in experiment [1] (setting [4]) is 94.5%. In addition, the “Dmax (%) H1975 # 28 DTC” value in experiment [2] (setting [5]) was 74.64%.

As to `CCc1ccc2c(P(C)(C)=O)c(Nc3nc(Nc4cc(CC)c(N5CCC(N6CCN(CCc7ccc([C@H]8CCC(=O)NC8=O)cc7)CC6)CC5)cc4OC)ncc3Br)ccc2n1` [Example 654, (R)-3-(4-(2-(4-(1-(4-((5-bromo-4-((5-(dimethylphosphoryl)-2-ethylquinolin-6-yl)amino)pyrimidin-2-yl)amino)-2-ethyl-5-methoxyphenyl)piperidin-4-yl)piperazin-1-yl)ethyl)phenyl)piperidine-2,6-dione], the DC50 in experiment [1] (setting [7]) was 23.2 nM; in experiment [2] (setting [9]) it was 2.08 nM. For the same compound, the maximal degradation (Dmax) in experiment [1] (setting [8]) turned out to be 74.8%. For the same compound, in experiment [2] (setting [5]), the “Dmax (%) H1975 # 28 DTC” value was 66.53%.
